Measured values published in the OPERA property sets (Mansouri et al. 2018).

Structure (SMILES)	boiling point [°C]	melting point [°C]	log10 Henry constant (atm·m³/mol)	log10 Koc (L/kg)	log10 vapour pressure (mmHg)	ready biodegradability	log10 biodegradation half-life (days)	log10 Koa
Fc1nc(F)nc(F)n1	72.8	-38						
O=C(OCCOC(=O)c1ccccc1)c1ccccc1		73.5						
c1ccc2c(c1)[nH]c1ccccc12	355	246	-6.94	3.4	-6.12	not readily biodegradable		
CCCCCCC(C)CCCCCC		-37.2						
Clc1cccc(Cl)c1-c1c(Cl)cccc1Cl			-3.7	4.9				
CCc1cccc(C)n1	160							
FC(Cl)C(F)(F)Cl (centres undefined)	29.5	-78			2.79			
O=P1(NCCCl)OCCCN1CCCl (centres undefined)		40						
COC(=O)c1sccc1N		65						
C=C1CC[C@H]2O[C@]2(C)CC[C@@H]2[C@@H]1CC2(C)C		62.5						
c1ccc2cc3c4ccccc4c4ccccc4c3cc2c1	524	206			-10			
CCNc1ccc([N+](=O)[O-])cc1		97						
Nc1cnn(-c2ccccc2)c(=O)c1Cl		205		2.08	-6.35			
CCCc1ccc(O)cc1	233	22	-5.94		-1.43			
CC(=O)c1ccc(C)c(C)c1	246	-3						
C=CCC(=O)O	169	-35						
N=C(N)NCCC[C@H](N)C(=O)O						readily biodegradable		
FC(F)(F)C(F)(F)C(F)(F)C(F)(F)C(F)(F)C(F)(F)C(F)(F)C(F)(F)F	106	-42						
CC(=O)Oc1cccc(C)c1	212	12						

Structure (SMILES)	boiling point [°C]	melting point [°C]	log10 Henry constant (atm·m³/mol)	log10 Koc (L/kg)	log10 vapour pressure (mmHg)	ready biodegradability	log10 biodegradation half-life (days)	log10 Koa
O=C(O)c1ccc(F)cc1F		189						
CC(C)(Sc1cc(C(C)(C)C)c(O)c(C(C)(C)C)c1)Sc1cc(C(C)(C)C)c(O)c(C(C)(C)C)c1		125						
C1CCSCC1	142	19			0.895			
CCCCCCCCCCCCC(=O)O	312	44.5			-4.9			
COc1ccc([C@@H]2CC(=O)c3c(O)cc(O[C@@H]4O[C@H](CO[C@@H]5O[C@@H](C)[C@H](O)[C@@H](O)[C@H]5O)[C@@H](O)[C@H](O)[C@H]4O)cc3O2)cc1O		262						
CC1CCC(C)C1 (centres undefined)							0.602	
O=c1[nH]cnc2c1ncn2[C@H]1CC[C@@H](CO)O1		162						
Clc1nc(Cl)c(Cl)c(Cl)c1Cl		126			-1.85			
N#Cc1ccc2ccccc2c1	306	66						
CCC(=O)C(C)(C)C	126	-45						
CC1CCCC2(C)CCCCC12O (centres undefined)	270							
O=[N+]([O-])c1cccc([N+](=O)[O-])c1Cl	315	88						
Nc1cccc(O)c1		123				not readily biodegradable		
OCC1CCCO1 (centres undefined)	178				-0.0964	readily biodegradable		
CNC(=O)N(C)c1nnc(C(C)(C)C)s1			-9.92	1.83	-5.7			
COP(=O)(OC)C(O)C(Cl)(Cl)Cl (centres undefined)		77		1.9	-5.11	not readily biodegradable		
CC(=O)c1cccc(C(F)(F)F)c1	199							
C[C@@H]1C[C@H]2CC[C@H](O2)[C@H](C)C(=O)O[C@@H](C)C[C@@H]2CC[C@@H](O2)[C@@H](C)C(=O)O[C@H](C)C[C@H]2CC[C@H](O2)[C@H](C)C(=O)O[C@@H](C)C[C@@H]2CC[C@@H](O2)[C@@H](C)C(=O)O1		148						
CCC(C1CCCCC1)C1CCCCC1	284	-23.5						

Structure (SMILES)	boiling point [°C]	melting point [°C]	log10 Henry constant (atm·m³/mol)	log10 Koc (L/kg)	log10 vapour pressure (mmHg)	ready biodegradability	log10 biodegradation half-life (days)	log10 Koa
CCCCCCCCCCCCCCCCCCCCc1ccccc1	429	44						
CCC(CO)(CO)[N+](=O)[O-]		57.5						
CC(C)(COCc1cccc(Oc2ccccc2)c1)c1ccc(OC(F)(F)Br)cc1					-8.23			
N#CC1(N=NC2(C#N)CCCCC2)CCCCC1		116						
Oc1ccccc1Cc1ccccc1	312	21						
CCC(C)C		-160			2.84			
CCOC(=O)CCN(Cc1ccccc1)SN(C)C(=O)O/N=C(/C)SC		47			-7.46			
CCC(=O)c1cccc(C)c1	235							
COc1ccsc1CN(C(=O)CCl)c1c(C)cccc1C		73			-6.68			
COc1ccc(N=[N+]([O-])c2ccc(OC)cc2)cc1		127						
O=C(O)c1cccc(O)c1O		204						
CC(=O)c1ccccc1	202	20	-4.98	1.8	-0.401	readily biodegradable		
Cc1c2ccncc2c(C)c2c1[nH]c1ccccc12		313						
Cc1ccsc1/C=C/C1=NCCCN1C		240						
CCCCCC=CC(C)C	161							
C/C=C/C(=O)OCC	137							
C=COCCC	65							
Clc1cc2c(Cl)c(Cl)c(Cl)cc2c(Cl)c1Cl					-6.46			9.58
